Experiments:
[1] = target: T1, Dimer of Gag-Pol polyprotein [514-612] (Human immunodeficiency virus 2, UniProt P04584); assay: Protease Inhibition Assay
T1 construct: 514-612
T1 sequence (P04584 whole entry): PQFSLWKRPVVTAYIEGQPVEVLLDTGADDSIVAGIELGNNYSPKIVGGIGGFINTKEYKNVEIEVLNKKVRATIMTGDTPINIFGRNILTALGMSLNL
Protocol: (§1) Enzymatic activity was measured by following cleavage of the substrate H-Lys-Ala-Arg-Val-Leu-pNph-Glu-Ala-Nle-NH2. Products of the cleavage reaction were quantified by HPLC detection

[2] = target: T2, Dimer of Gag-Pol polyprotein [489-587] (Human immunodeficiency virus 1, UniProt P12497); assay: Protease Inhibition Assay
T2 construct: 489-587
Protocol: as §1

SMILES | Ki [1] [nM] | Ki ([2]; pH 6.25, 37 °C) [nM] | other results
COc1ccc(CN[C@@H](C(=O)N[C@H](C(=O)NCc2nc3ccccc3[nH]2)C(C)C)[C@H](O)[C@H](Cc2ccccc2)NC(=O)[C@@H](NC(=O)OCc2ccccc2)C(C)(C)C)cc1 [5PhBuCOOH deriv.] | 52 | – | –
CC(C)[C@H](NC(=O)OCc1ccccc1)C(=O)N[C@@H](Cc1ccccc1)[C@@H](O)[C@@H](NCc1ccccc1)C(=O)N[C@H](C(=O)NCc1ccccc1)C(C)C [5PhBuCOOH deriv.] | – | – | Ki ([1]; pH 4.7, 37 °C): 180 nM
CCC(C)[C@H](NC(=O)[C@H](NCc1ccccc1)[C@H](O)[C@H](Cc1ccccc1)NC(=O)[C@@H](NC(=O)OCc1ccccc1)C(C)C)C(=O)NCc1ccccc1 (stereo partly drawn) [benzyl N-[(1S)-1-{[(2S,3R,4R)-4-(benzylamino)-4-{[(1S,2R)-1-(benzylcarbamoyl)-2-methylbutyl]carbamoyl}-3-hydroxy-1-phenylbutan-2-yl]carbamoyl}-2-methylpropyl]carbamate] | – | > 3000 | –
COc1ccc(CN[C@@H](C(=O)N[C@H](C(=O)NCc2nc3ccccc3[nH]2)C(C)C)[C@H](O)[C@H](Cc2ccccc2)NC(=O)[C@@H](NC(=O)CCc2ccc(O)cc2)C(C)(C)C)cc1 [5PhBuCOOH deriv.] | 63 | – | –
COc1ccc(CN[C@@H](C(=O)N[C@H](C(=O)NCc2nc3ccccc3[nH]2)C(C)C)[C@H](O)[C@H](Cc2ccccc2)NC(=O)[C@@H](NC(=O)[C@@](C)(O)c2ccccc2)C(C)(C)C)cc1 [5PhBuCOOH deriv.] | 110 | – | Ki [2]: 6 nM
CCC(C)[C@H](NC(=O)OCc1ccccc1)C(=O)N[C@@H](Cc1ccccc1)[C@@H](O)[C@@H](NCc1ccccc1)C(=O)N[C@H](C(=O)NCc1ccccc1)C(C)C (stereo partly drawn) [5PhBuCOOH deriv.] | – | 8.3 | –
CC(C)[C@H](NC(=O)[C@H](NCc1ccccc1)[C@H](O)[C@H](Cc1ccccc1)NC(=O)[C@H](CCC(=O)O)NC(=O)OCc1ccccc1)C(=O)NCc1ccccc1 [5PhBuCOOH deriv.] | – | 45 | –
CC(C)[C@H](NC(=O)OCc1ccccc1)C(=O)N[C@@H](Cc1ccccc1)[C@@H](O)[C@@H](NCc1ccccc1)C(=O)N[C@H](C(=O)NCc1ccccc1)C(C)(C)C [benzyl N-[(1S)-1-{[(2S,3R,4R)-4-(benzylamino)-4-{[(1S)-1-(benzylcarbamoyl)-2,2-dimethylpropyl]carbamoyl}-3-hydroxy-1-phenylbutan-2-yl]carbamoyl}-2-methylpropyl]carbamate] | – | 20 | –
CC(C)[C@H](NC(=O)OCc1ccccc1)C(=O)N[C@@H](Cc1ccccc1)[C@@H](O)[C@@H](NCc1ccccc1)C(=O)N[C@@H](C(=O)NCc1ccccc1)C(C)(C)C [5PhBuCOOH deriv.] | – | – | Ki [2]: > 3000 nM
COc1ccc(CN[C@@H](C(=O)N[C@H](C(=O)NCc2ccccc2)C(C)C)[C@H](O)[C@H](Cc2ccccc2)NC(=O)[C@@H](NC(=O)OCc2ccccc2)C(C)C)cc1 [benzyl N-[(1S)-1-{[(2S,3R,4R)-4-{[(1S)-1-(benzylcarbamoyl)-2-methylpropyl]carbamoyl}-3-hydroxy-4-{[(4-methoxyphenyl)methyl]amino}-1-phenylbutan-2-yl]carbamoyl}-2-methylpropyl]carbamate] | – | – | Ki ([1]; pH 4.7, 37 °C): 39 nM
CC(C)[C@H](NC(=O)[C@H](NCc1ccccc1)[C@H](O)[C@H](Cc1ccccc1)NC(=O)[C@@H](NC(=O)OCc1ccccc1)C(C)(C)C)C(=O)NCc1ccccc1 [5PhBuCOOH deriv.] | – | – | Ki ([1]; pH 4.7, 37 °C): 54 nM
CC(C)[C@H](NC(=O)[C@H](NCc1ccc(Cl)cc1)[C@H](O)[C@H](Cc1ccccc1)NC(=O)[C@@H](NC(=O)OCc1ccccc1)C(C)(C)C)C(=O)NCc1nc2ccccc2[nH]1 [benzyl N-[(1S)-1-{[(2S,3R,4R)-4-{[(1S)-1-[(1H-1,3-benzodiazol-2-ylmethyl)carbamoyl]-2-methylpropyl]carbamoyl}-4-{[(4-chlorophenyl)methyl]amino}-3-hydroxy-1-phenylbutan-2-yl]carbamoyl}-2,2-dimethylpropyl]carbamate] | 17 | – | –

From BindingDB's records for doi:10.1021/jm00045a013 (Sandoz Forschungsinstitut Ges.M.B.H., 1994)
